One molecule from US11744799B2, “Topical composition” (MC2 Therapeutics Limited, priority 2017, dated 2023) can be followed below.

Where “and” joins values, the source holds several entries; their conditions need not be identical. Equal values may be shown once.

The nature of the data set: Stability of 1% crisaborole solution in 50% ethanol/citrate buffer at various pH. The conditions noted are these: for % peak purity: 1% solution, 50% ethanol, 40° C. for one month. The data set is classed as physicochemical. On the procedure: The sample was stored in a closed, airtight glass container with headspace comprising no more than 5% by volume of the total usable volume of the container. Each container containing a sample was stored at a constant temperature of 40° C. in a standard laboratory incubator (for example, Memmert IF260PLUS Incubator). The storage period for each sample was […]. The chemical stability of the crisaborole in each sample after the storage period was measured by a HPLC method. The HPLC method was as follows: A 1% solution of crisaborole was prepared with 50% ethanol and a citrate buffer to pH 5.5. The system was then stored at 40° C. for one month under the conditions of Example 3 and gave an 84% peak purity. Equivalent solutions were prepared and tested at pH 4.5, 6.5, 7.5 and 8.5.

With `N#Cc1ccc(Oc2ccc3c(c2)COB3O)cc1` [crisaborole], the “pH at which chemical stability is highest” value (aqueous medium, pH 4.5 to 8.5 tested) is 5.5. Further, the “% peak purity” value (pH 4.5) is 79.5%; the “% peak purity” value (pH 5.5, citrate buffer) was 84% and 84.1%; the “% peak purity” value (pH 6.5) turned out to be 79.8%; the “% peak purity” value (pH 7.5) amounted to 72.1%; the “% peak purity” value (pH 8.5) is on record as 51.3%.
